From the supplement of paper PMC10307832

How the values were obtained:
Test in all cases: relative viability (nuclei count vs DMSO), 5 days (fraction); higher = more cells survive
Etoposide + Navitoclax = compound: COc1cc([C@@H]2c3cc4c(cc3[C@@H](O[C@@H]3O[C@@H]5CO[C@@H](C)O[C@H]5[C@H](O)[C@H]3O)[C@H]3COC(=O)[C@H]23)OCO4)cc(OC)c1O [Etoposide] + CC1(C)CCC(c2ccc(Cl)cc2)=C(CN2CCN(c3ccc(C(=O)NS(=O)(=O)c4ccc(N[C@H](CCN5CCOCC5)CSc5ccccc5)c(S(=O)(=O)C(F)(F)F)c4)cc3)CC2)C1 [Navitoclax] (partner 0.5 µM)
In short: (§1)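 Lung cancer cell lines were seeded in 1536-well plates and dosed by pin tool the next day, with either a single drug or a fixed anchor-drug dose combined with five library-drug doses (not always all listed) spaced in √10 steps. Five days later, one step fixed the cells and stained their nuclei (final 0.05% Triton X-100, 1% formaldehyde, 1 ug/ml Hoechst), and nuclei were counted on 4× images. Relative viability is the nuclei count in treated wells divided by the count in vehicle wells, and each value is the median of duplicate plates.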

Etoposide + Crizotinib = compound: COc1cc([C@@H]2c3cc4c(cc3[C@@H](O[C@@H]3O[C@@H]5CO[C@@H](C)O[C@H]5[C@H](O)[C@H]3O)[C@H]3COC(=O)[C@H]23)OCO4)cc(OC)c1O [Etoposide] + C[C@@H](Oc1cc(-c2cnn(C3CCNCC3)c2)cnc1N)c1c(Cl)ccc(F)c1Cl [Crizotinib] (partner 1 µM)
In short: as §1

Bleomycin + Tozasertib = compound: CC1=C(N=C(N=C1N)[C@H](CC(=O)N)NC[C@@H](C(=O)N)N)C(=O)N[C@@H]([C@H](C2=CN=CN2)OC3C(C(C(C(O3)CO)O)O)OC4C(C(C(C(O4)CO)O)OC(=O)N)O)C(=O)N[C@H](C)[C@H]([C@H](C)C(=O)N[C@@H]([C@@H](C)O)C(=O)NCCC5=NC(=CS5)C6=NC(=CS6)C(=O)NCCC[S+](C)C)O [Bleomycin] + Cc1cc(Nc2cc(N3CCN(C)CC3)nc(Sc3ccc(NC(=O)C4CC4)cc3)n2)n[nH]1 [Tozasertib] (partner 0.1 µM); conditions: main component drawn
In short: as §1

Etoposide + Pemetrexed = compound: COc1cc([C@@H]2c3cc4c(cc3[C@@H](O[C@@H]3O[C@@H]5CO[C@@H](C)O[C@H]5[C@H](O)[C@H]3O)[C@H]3COC(=O)[C@H]23)OCO4)cc(OC)c1O [Etoposide] + Nc1nc2[nH]cc(CCc3ccc(C(=O)N[C@@H](CCC(=O)O)C(=O)O)cc3)c2c(=O)[nH]1 [Pemetrexed] (partner 0.2 µM)
In short: as §1

Cell Line | relative viability (Etoposide + Navitoclax; first compound 0.01 µM) | relative viability (Etoposide + Navitoclax; first compound 0.03162 µM) | relative viability (Etoposide + Navitoclax; first compound 0.1 µM) | relative viability (Etoposide + Navitoclax; first compound 0.3162 µM) | relative viability (Etoposide + Navitoclax; first compound 1 µM) | relative viability (Etoposide + Crizotinib; first compound 0.01 µM) | relative viability (Etoposide + Crizotinib; first compound 0.03162 µM) | relative viability (Etoposide + Crizotinib; first compound 0.1 µM) | relative viability (Etoposide + Crizotinib; first compound 0.3162 µM) | relative viability (Etoposide + Crizotinib; first compound 1 µM) | relative viability (Bleomycin + Tozasertib; first compound 0.01 µM) | relative viability (Bleomycin + Tozasertib; first compound 0.03162 µM) | relative viability (Bleomycin + Tozasertib; first compound 0.1 µM) | relative viability (Bleomycin + Tozasertib; first compound 0.3162 µM) | relative viability (Bleomycin + Tozasertib; first compound 1 µM) | relative viability (Etoposide + Pemetrexed; first compound 0.01 µM) | relative viability (Etoposide + Pemetrexed; first compound 0.03162 µM) | relative viability (Etoposide + Pemetrexed; first compound 0.1 µM) | relative viability (Etoposide + Pemetrexed; first compound 0.3162 µM) | relative viability (Etoposide + Pemetrexed; first compound 1 µM)
EMC-BAC-2 | 1.08 | 1.05 | 0.83 | 0.297 | 0.161 | 0.661 | 0.527 | 0.382 | 0.2 | 0.161 | 0.2 | 0.278 | 0.246 | 0.22 | 0.178 | 0.442 | 0.466 | 0.476 | 0.37 | 0.284
NCI-H3122 | 1.05 | 1.04 | 1.05 | 0.877 | 0.477 | 0.307 | 0.288 | 0.231 | 0.262 | 0.246 | 0.337 | 0.281 | 0.324 | 0.177 | 0.166 | 0.21 | 0.207 | 0.206 | 0.19 | 0.179
NCI-H1944 | 1.11 | 1 | 0.63 | 0.593 | 0.3 | 1.03 | 1.1 | 0.763 | 0.641 | 0.258 | 0.196 | 0.197 | 0.187 | 0.147 | 0.12 | 0.591 | 0.797 | 0.396 | 0.44 | 0.189
EPLC-272H | 1.22 | 1.25 | 0.71 | 0.962 | 0.436 | 1.07 | 1.03 | 0.628 | 0.703 | 0.489 | 0.232 | 0.243 | 0.191 | 0.127 | 0.173 | 0.344 | 0.327 | 0.318 | 0.315 | 0.308
NCI-H1915 | 0.826 | 0.814 | 0.815 | 0.725 | 0.621 | 0.859 | 0.985 | 0.825 | 0.802 | 0.481 | 0.317 | 0.347 | 0.229 | 0.162 | 0.133 | 0.504 | 0.516 | 0.484 | 0.474 | 0.459
NCI-H647 | 0.936 | 1.18 | 0.961 | 0.261 | 0.241 | 1.05 | 1.01 | 0.858 | 0.298 | 0.151 | 0.0723 | 0.103 | 0.0701 | 0.0484 | 0.0467 | 0.173 | 0.161 | 0.188 | 0.121 | 0.121
NCI-H441 | 0.535 | 0.633 | 0.571 | 0.168 | 0.189 | 0.597 | 0.603 | 0.39 | 0.197 | 0.133 | 0.53 | 0.611 | 0.471 | 0.332 | 0.275 | 0.254 | 0.257 | 0.235 | 0.193 | 0.153
NCI-H23 | 0.733 | 0.816 | 0.502 | 0.421 | 0.254 | 0.365 | 0.471 | 0.402 | 0.297 | 0.169 | 0.208 | 0.268 | 0.217 | 0.161 | 0.135 | 0.659 | 0.697 | 0.472 | 0.411 | 0.216
SK-MES-1 | 1.14 | 1.23 | 0.913 | 0.532 | 0.211 | 0.943 | 0.957 | 0.887 | 0.433 | 0.273 | 0.531 | 0.542 | 0.35 | 0.15 | 0.134 | 0.912 | 1.02 | 0.844 | 0.708 | 0.256
NCI-H2170 | 0.625 | 0.728 |  | 0.525 | 0.399 | 1.06 | 1.21 |  | 1 | 0.851 | 0.627 | 0.826 | 0.735 | 0.549 | 0.372 | 0.285 | 0.26 |  | 0.261 | 0.252
NCI-H2085 | 1.16 | 1.06 | 1.11 | 0.67 | 0.354 | 0.91 | 0.871 | 0.827 | 0.5 | 0.326 | 0.758 | 0.74 | 0.783 | 0.539 | 0.428 | 0.769 | 0.95 | 0.803 | 0.907 | 0.378
NCI-H838 | 1.09 | 1.14 | 1.19 | 0.705 | 0.338 | 0.85 | 0.846 | 0.973 | 0.522 | 0.345 | 0.238 | 0.211 | 0.178 | 0.15 | 0.139 | 0.277 | 0.259 | 0.274 | 0.251 | 0.239
NCI-H460 | 0.93 | 0.796 | 0.6 | 0.0627 | 0.0154 | 0.708 | 0.498 | 0.476 | 0.0396 | 0.0142 | 0.0837 | 0.101 | 0.153 | 0.0462 | 0.0258 | 0.0661 | 0.0549 | 0.061 | 0.0772 | 0.0604
LOU-NH91 | 0.695 | 0.654 | 0.504 | 0.464 | 0.329 | 0.74 | 0.767 | 0.701 | 0.632 | 0.438 | 0.504 | 0.289 | 0.404 | 0.323 | 0.274 | 0.403 | 0.414 | 0.469 | 0.359 | 0.346
